{"source": "patent US8674085B2", "about": "“2′-branched nucleosides and Flaviviridae mutation” (priority 2002, dated 2014)", "key": {"[1]": {"tested_on": "HCV", "conditions": "ribavirin alone; cited from earlier work"}, "[2]": {"tested_on": "BVDV (strain I-N-dIns) in persistently infected MDBK cells", "experiment": "Passaging of persistently infected MDBK cells with 8 μM β-D-2′-CH3-riboC (isolation of resistant BVDV)", "format": "cell-based, bovine viral diarrhea virus", "experimental": "(§1) Persistent BVDV infection was established in MDBK cell line (ATCC, Manassas, Va., Catalog #: CCL-22) by in vitro infection of naive cells with a noncytophatic (ncp) BVDV (strain I-N-dIns; Dr. R. Donis, U. of Nebraska, Lincoln, Nebr.). The multiplicity of infection (MOI) was 0.01. Cells were passaged twice per week (splitting ratio 1:15) until the stable high-level of infection (10^6-10^7 focus forming units (FFU) per mL) was achieved, as was determined by a focus assay. Next, the persistently infected cells were grown in 6-well culture plates with 8 μM or without β-D-2′-CH3-riboC (Idenix Pharmaceuticals). Cell cultures were passaged every three to four days by splitting with a ratio of 1:15 to 1:20. After eight passages, cell cultures grown in the presence of β-D-2′-CH3-riboC were expanded to T-75 culture flask, freeze/thawed twice, and used as a virus stock of β-D-2′-CH3-riboC-resistant BVDV for further characterization. The virus titers in cell cultures were monitored at the end of each passage by the virus focus assay.\nTo conduct the virus focus assay, MDBK cells were seeded onto 6-well plates containing 2×10^5 cells per well and grown at 37° C./5% CO2 for at least 5 hours before use. The test samples (culture supernatants combined with cell monolayers) were frozen/thawed twice, serially diluted by 10-fold in medium, and used to inoculate test cells in 6-well plates at 0.2 mL per well. The inoculum was removed after 1 hour of adsorption, and the cells were overlaid with 3 mL of 0.5% agarose in complete growth medium (1× DMEM (Cellgro), supplemented with 8% horse serum, penicillin, streptomycin, L-glutamine, sodium pyruvate, and 25 mM HEPES). After 3 days of incubation at 37° C./5% CO2, the plates were fixed for 1 hour with 3 mL of 7.4% formaldehyde in PBS, and washed with PBS. […] Virus titers were calculated in FFU/mL, using the following equation: TFFU/mL=N×5×D; where T is a virus titer in FFU/mL; N is a number of foci per well; and D is a dilution factor for the corresponding virus sample. […]"}, "[3]": {"tested_on": "BVDV strain I-NADL", "experiment": "BVDV virus yield reduction assay", "format": "cell-based, bovine viral diarrhea virus", "conditions": "cp", "experimental": "To conduct the virus focus assay, MDBK cells were seeded onto 6-well plates containing 2×10^5 cells per well and grown at 37° C./5% CO2 for at least 5 hours before use. The test samples (culture supernatants combined with cell monolayers) were frozen/thawed twice, serially diluted by 10-fold in medium, and used to inoculate test cells in 6-well plates at 0.2 mL per well. The inoculum was removed after 1 hour of adsorption, and the cells were overlaid with 3 mL of 0.5% agarose in complete growth medium (1× DMEM (Cellgro), supplemented with 8% horse serum, penicillin, streptomycin, L-glutamine, sodium pyruvate, and 25 mM HEPES). After 3 days of incubation at 37° C./5% CO2, the plates were fixed for 1 hour with 3 mL of 7.4% formaldehyde in PBS, and washed with PBS. The cell monolayers were permeabilized with 1 mL of PBS-0.25% Triton X-100 per well for 10 minutes, and incubated with 0.5 mL of goat anti-BVDV antiserum (VMDR, Inc.; diluted 1:1000 in PBS-0.25% Triton X-100) for 1 hour. The antiserum was then removed, and cell monolayers were washed with PBS (twice for 15 min) and incubated with 0.5 mL of peroxidase-conjugated donkey anti-goat antibody (diluted 1:1000 in PBS-0.25% Triton X-100) for another 1 hour. After the antibody was removed, the cell monolayers were washed with PBS (twice for 15 min), and incubated with 0.5 mL of diaminobenzidine (DAB) peroxidase substrate solution (Vector Laboratories) at room temperature until virus foci become visible (approximately 15 minutes). All incubations were carried out with rocking. The staining was stopped by washing with water and the plates were allowed to air dry. Virus titers were calculated in FFU/mL, using the following equation: TFFU/mL=N×5×D; where T is a virus titer in FFU/mL; N is a number of foci per well; and D is a dilution factor for the corresponding virus sample. […]\n(§2) To conduct the virus yield reduction assay, MDBK cells were seeded onto 24-well plates (1×10^5 cells per well) and grown at 37° C./5% CO2 overnight. […] The virus titer in the cell culture was quantified by focus assay as described above. […]"}, "[4]": {"tested_on": "BVDV (strain I-N-dIns) in persistently infected MDBK cells", "experiment": "Single or double treatment of persistently infected MDBK cells, virus titers by focus assay", "format": "cell-based, bovine viral diarrhea virus", "conditions": "for log value of the BVDV titer: 0 IU/mL Interferon alpha-2b; for reduction of viral titers: single treatment, 7 days", "experimental": "as §1, with “After eight passages, cell cultures grown in the presence of β-D-2′-CH3-riboC were expanded to T-75 culture flask, freeze/thawed twice, and used as a virus stock of β-D-2′-CH3-riboC-resistant BVDV for further characterization.” left out\n(§3) To conduct the virus focus assay, MDBK cells were seeded onto 6-well plates containing 2×10^5 cells per well and grown at 37° C./5% CO2 for at least 5 hours before use. The test samples (culture supernatants combined with cell monolayers) were frozen/thawed twice, serially diluted by 10-fold in medium, and used to inoculate test cells in 6-well plates at 0.2 mL per well. The inoculum was removed after 1 hour of adsorption, and the cells were overlaid with 3 mL of 0.5% agarose in complete growth medium (1× DMEM (Cellgro), supplemented with 8% horse serum, penicillin, streptomycin, L-glutamine, sodium pyruvate, and 25 mM HEPES). After 3 days of incubation at 37° C./5% CO2, the plates were fixed for 1 hour with 3 mL of 7.4% formaldehyde in PBS, and washed with PBS. The cell monolayers were permeabilized with 1 mL of PBS-0.25% Triton X-100 per well for 10 minutes, and incubated with 0.5 mL of goat anti-BVDV antiserum (VMDR, Inc.; diluted 1:1000 in PBS-0.25% Triton X-100) for 1 hour. The antiserum was then removed, and cell monolayers were washed with PBS (twice for 15 min) and incubated with 0.5 mL of peroxidase-conjugated donkey anti-goat antibody (diluted 1:1000 in PBS-0.25% Triton X-100) for another 1 hour. After the antibody was removed, the cell monolayers were washed with PBS (twice for 15 min), and incubated with 0.5 mL of diaminobenzidine (DAB) peroxidase substrate solution (Vector Laboratories) at room temperature until virus foci become visible (approximately 15 minutes). All incubations were carried out with rocking. The staining was stopped by washing with water and the plates were allowed to air dry. Virus titers were calculated in FFU/mL, using the following equation: TFFU/mL=N×5×D; where T is a virus titer in FFU/mL; N is a number of foci per well; and D is a dilution factor for the corresponding virus sample.\nThe effect of Intron A, alone or in combination with β-D-2′-CH3-riboC, on the wild type BVDV was further studied in the persistently infected MDBK cells. In one experimental setting, the virus titers were determined after 7 days (two passages) of single or double treatment with several inhibitor concentrations."}, "[5]": {"tested_on": "BVDV I-N-dIns β-D-2′-CH3-riboC-R (β-D-2′-CH3-riboC-resistant BVDV)", "experiment": "BVDV virus yield reduction assay in de novo-infected MDBK cells", "format": "cell-based, bovine viral diarrhea virus", "experimental": "as §3\nTo conduct the virus yield reduction assay, MDBK cells were seeded onto 24-well plates (1×10^5 cells per well) and grown at 37° C./5% CO2 overnight. Cells were infected with BVDV at a multiplicity of infection of 0.1. After 1-hour adsorption, the inoculum was removed, and cells were washed with PBS and then overlaid with 1 mL of fresh growth medium, containing serial 2-fold dilutions of the test compound (0-32 μM for β-D-2′-CH3-riboC and 0-800 IU/mL for Intron®A). After incubation at 37° C./5% CO2 for 48 hours, the plates were frozen/thawed at −70° C. twice to lyse the cell cultures. The virus titer in the cell culture was quantified by focus assay as described above. […] The EC50, EC90 and EC4-log values were derived by curve fitting using XLFit software."}, "[6]": {"tested_on": "BVDV strain I-N-dIns (wild type)", "experiment": "microbe, parasite or virus in culture", "format": "cell-based, bovine viral diarrhea virus", "experimental": "as §3, §2"}, "[7]": {"conditions": "Bovine viral diarrhea virus isolates and strains"}, "[8]": {"conditions": "Bovine viral diarrhea virus isolates and strains, MDBK, BVDV strain I-N-dIns β-D-2′-CH3-riboC-R, ncp, 48 hours"}}}
{"smiles": "NC(=O)c1ncn([C@@H]2O[C@H](CO)[C@@H](O)[C@H]2O)n1", "note": "[Ribavirin, 1-β-D-ribofuranosyl-1-1,2,4-triazole-3-carboxamide]", "values": [{"measurement": "serum amino transferase levels reduced to normal, share of patients", "setting": "[1]", "value": 40, "unit": "%"}]}
{"smiles": "CC1(O)C(O)[C@@H](CO)O[C@H]1n1ccc(N)nc1=O", "note": "(stereo partly drawn) [β-D-2′-CH3-riboC]", "values": [{"measurement": "virus titer plateau after reappearance of virus", "setting": "[2]; additional passaging in the presence of the inhibitor (virus reappeared at passage 3 to 5)", "value": "10^5 FFU/mL"}, {"measurement": "virus detection in culture", "setting": "[2]; after two passages", "value": "no longer detectable"}, {"measurement": "difference in virus titers versus untreated culture", "setting": "[2]; observed even after 28 days of treatment", "value": "~10", "unit": "fold"}, {"measurement": "EC50", "setting": "[3]; [7]", "value": "680 ± 80", "unit": "nM"}, {"measurement": "EC90", "setting": "[3]; [7]", "value": "1730 ± 110", "unit": "nM"}, {"measurement": "EC4 log", "setting": "[3]", "value": "8.22 ± 0.05", "unit": "μM"}, {"measurement": "log value of the BVDV titer", "setting": "[4]; 2 μM β-D-2′-CH3-riboC, 7 days (two passages)", "value": 5.10, "unit": "log"}, {"measurement": "log value of the BVDV titer", "setting": "[4]; 4 μM β-D-2′-CH3-riboC, 7 days (two passages)", "value": 4.55, "unit": "log"}, {"measurement": "reduction of virus titer", "setting": "[4]; 8 μM β-D-2′-CH3-riboC alone, 7 days (two passages)", "value": 6.2, "unit": "logs"}, {"measurement": "log value of the BVDV titer", "setting": "[4]; 8 μM β-D-2′-CH3-riboC, 7 days (two passages)", "value": 0.40, "unit": "log"}, {"measurement": "reduction of viral titers", "setting": "[4]; 2 μM β-D-2′-CH3-riboC", "value": 1.61, "unit": "logs"}, {"measurement": "reduction of viral titers", "setting": "[4]; 4 μM β-D-2′-CH3-riboC", "value": 2.06, "unit": "logs"}, {"measurement": "EC4 log", "setting": "[5]; BVDV strain I-N-dIns β-D-2′-CH3-riboC-R, ncp, 48 hours", "value": ">32", "unit": "μM"}, {"measurement": "EC50", "setting": "[5]; [8]", "value": "> 32", "unit": "µM"}, {"measurement": "EC90", "setting": "[5]; [8]", "value": "> 32", "unit": "µM"}, {"measurement": "fold more resistant to the inhibitor than the wild type virus", "setting": "[5]; based on the EC50 values of the virus yield reduction assay", "value": "at least 54 fold"}, {"measurement": "effect on the resistant virus yield", "setting": "[5]; highest concentration tested (32 μM)", "value": "no effect"}, {"measurement": "EC4 log", "setting": "[6]; BVDV strain I-N-dIns, ncp, concentration reducing viral titer by 99.99%, 48 hours", "value": "7.14±1.26", "unit": "μM"}, {"measurement": "EC50", "setting": "[6]; Bovine viral diarrhea virus isolates and strains, MDBK, BVDV strain I-N-dIns, ncp, concentration reducing viral titer by 50%, 48 hours", "value": "590 ± 120", "unit": "nM"}, {"measurement": "virus titers", "setting": "[6]; at 16 μM, wild type virus, below the detection limit", "value": "< 10", "unit": "FFU/mL"}]}
